How the values were obtained:
Type in all cases: functional
PC-3 [1] = experiment: Cytotoxicity against human PC-3 cells assessed as cell growth inhibition at […] measured after 72 hrs by MTT assay relative to control; details: dose 2.5 µM, read-out: GI
PC-3 [2] = experiment: Cytotoxicity against human PC-3 cells assessed as cell growth inhibition at 1.25 uM measured after 72 hrs by MTT assay relative to control; details: read-out: GI
PC-3 [3] = experiment: Synergistic anticancer activity against human PC-3 cells assessed as cell growth inhibition at […] measured after 72 hrs in presence of 0.00001 uM of topotecan by MTT assay relative to control; details: dose 2.5 µM, read-out: GI
PC-3 [4] = experiment: Synergistic anticancer activity against human PC-3 cells assessed as cell growth inhibition at […] measured after 72 hrs in presence of 0.0001 uM of topotecan by MTT assay relative to control; details: dose 2.5 µM, read-out: GI
PC-3 [5] = experiment: Synergistic anticancer activity against human PC-3 cells assessed as cell growth inhibition at […] measured after 72 hrs in presence of 0.001 uM of topotecan by MTT assay relative to control; details: dose 2.5 µM, read-out: GI
PC-3 [6] = experiment: Synergistic anticancer activity against human PC-3 cells assessed as cell growth inhibition at […] measured after 72 hrs in presence of 0.01 uM of topotecan by MTT assay relative to control; details: dose 2.5 µM, read-out: GI
PC-3 [7] = experiment: Synergistic anticancer activity against human PC-3 cells assessed as cell growth inhibition at […] measured after 72 hrs in presence of 10 uM of topotecan by MTT assay relative to control; details: dose 2.5 µM, read-out: GI
PC-3 [8] = experiment: Synergistic anticancer activity against human PC-3 cells assessed as cell growth inhibition at 1.25 uM measured after 72 hrs in presence of 0.0001 uM of topotecan by MTT assay relative to control; details: read-out: GI
PC-3 [9] = experiment: Synergistic anticancer activity against human PC-3 cells assessed as cell growth inhibition at 1.25 uM measured after 72 hrs in presence of 0.001 uM of topotecan by MTT assay relative to control; details: read-out: GI
PC-3 [10] = experiment: Synergistic anticancer activity against human PC-3 cells assessed as cell growth inhibition at 1.25 uM measured after 72 hrs in presence of 0.01 uM of topotecan by MTT assay relative to control; details: read-out: GI
PC-3 [11] = experiment: Synergistic anticancer activity against human PC-3 cells assessed as cell growth inhibition at 1.25 uM measured after 72 hrs in presence of 0.1 uM of topotecan by MTT assay relative to control; details: read-out: GI
PC-3 [12] = experiment: Synergistic anticancer activity against human PC-3 cells assessed as cell growth inhibition at 1.25 uM measured after 72 hrs in presence of 10 uM of topotecan by MTT assay relative to control; details: read-out: GI
PC-3 [13] = experiment: Synergistic anticancer activity against human PC-3 cells assessed as cell growth inhibition at 0.625 uM measured after 72 hrs in presence of 0.00001 uM of topotecan by MTT assay relative to control; details: read-out: GI
PC-3 [14] = experiment: Synergistic anticancer activity against human PC-3 cells assessed as cell growth inhibition at 0.625 uM measured after 72 hrs in presence of 0.0001 uM of topotecan by MTT assay relative to control; details: read-out: GI
PC-3 [15] = experiment: Synergistic anticancer activity against human PC-3 cells assessed as cell growth inhibition at 0.625 uM measured after 72 hrs in presence of 0.001 uM of topotecan by MTT assay relative to control; details: read-out: GI
PC-3 [16] = experiment: Synergistic anticancer activity against human PC-3 cells assessed as cell growth inhibition at 0.625 uM measured after 72 hrs in presence of 0.01 uM of topotecan by MTT assay relative to control; details: read-out: GI
PC-3 [17] = experiment: Synergistic anticancer activity against human PC-3 cells assessed as cell growth inhibition at 0.625 uM measured after 72 hrs in presence of 0.1 uM of topotecan by MTT assay relative to control; details: read-out: GI
PC-3 [18] = experiment: Synergistic anticancer activity against human PC-3 cells assessed as cell growth inhibition at 0.625 uM measured after 72 hrs in presence of 1 uM of topotecan by MTT assay relative to control; details: read-out: GI
[19] = Cytotoxicity against mouse RCaP cells assessed as cell growth inhibition at 1.25 uM measured after 72 hrs by MTT assay relative to control; details: read-out: GI
[20] = Cytotoxicity against mouse RCaP cells assessed as cell growth inhibition at 0.625 uM measured after 72 hrs by MTT assay relative to control; details: read-out: GI
[21] = Synergistic anticancer activity against mouse RCaP cells assessed as cell growth inhibition at 1.25 uM measured after 72 hrs in presence of 0.0001 uM of topotecan by MTT assay relative to control; details: read-out: GI
[22] = Synergistic anticancer activity against mouse RCaP cells assessed as cell growth inhibition at 1.25 uM measured after 72 hrs in presence of 0.001 uM of topotecan by MTT assay relative to control; details: read-out: GI
[23] = Synergistic anticancer activity against mouse RCaP cells assessed as cell growth inhibition at 1.25 uM measured after 72 hrs in presence of 0.01 uM of topotecan by MTT assay relative to control; details: read-out: GI
[24] = Synergistic anticancer activity against mouse RCaP cells assessed as cell growth inhibition at 1.25 uM measured after 72 hrs in presence of 0.1 uM of topotecan by MTT assay relative to control; details: read-out: GI
[25] = Synergistic anticancer activity against mouse RCaP cells assessed as cell growth inhibition at 1.25 uM measured after 72 hrs in presence of 1 uM of topotecan by MTT assay relative to control; details: read-out: GI
[26] = Synergistic anticancer activity against mouse RCaP cells assessed as cell growth inhibition at 1.25 uM measured after 72 hrs in presence of 10 uM of topotecan by MTT assay relative to control; details: read-out: GI
[27] = Synergistic anticancer activity against mouse RCaP cells assessed as cell growth inhibition at 0.625 uM measured after 72 hrs in presence of 0.00001 uM of topotecan by MTT assay relative to control; details: read-out: GI
[28] = Synergistic anticancer activity against mouse RCaP cells assessed as cell growth inhibition at 0.625 uM measured after 72 hrs in presence of 0.0001 uM of topotecan by MTT assay relative to control; details: read-out: GI
[29] = Synergistic anticancer activity against mouse RCaP cells assessed as cell growth inhibition at 0.625 uM measured after 72 hrs in presence of 0.001 uM of topotecan by MTT assay relative to control; details: read-out: GI
[30] = Synergistic anticancer activity against mouse RCaP cells assessed as cell growth inhibition at 0.625 uM measured after 72 hrs in presence of 0.01 uM of topotecan by MTT assay relative to control; details: read-out: GI
[31] = Synergistic anticancer activity against mouse RCaP cells assessed as cell growth inhibition at 0.625 uM measured after 72 hrs in presence of 0.1 uM of topotecan by MTT assay relative to control; details: read-out: GI
[32] = Synergistic anticancer activity against mouse RCaP cells assessed as cell growth inhibition at 0.625 uM measured after 72 hrs in presence of 1 uM of topotecan by MTT assay relative to control; details: read-out: GI
[33] = Synergistic anticancer activity against mouse RCaP cells assessed as cell growth inhibition at 0.625 uM measured after 72 hrs in presence of 10 uM of topotecan by MTT assay relative to control; details: read-out: GI

COc1ccccc1[C@H]1[C@H](C(=O)O)[C@H](c2ccccc2OC)[C@H]1C(=O)Oc1cc(-c2ccc3c(c2)OCO3)ccc1-c1ccccc1
inhibition of growth at […] (PC-3 [1]): 7.37%
inhibition of growth at 1.25 µM (PC-3 [2]): -2.3%
inhibition of growth at […] (PC-3 [3]): 15.1%
inhibition of growth at […] (PC-3 [4]): 25.3%
inhibition of growth at […] (PC-3 [5]): 34.3%
inhibition of growth at […] (PC-3 [6]): 54.6%
inhibition of growth at […] (PC-3 [7]): 92.9%
inhibition of growth at 1.25 µM (PC-3 [8]): 14.7%
inhibition of growth at 1.25 µM (PC-3 [9]): 33.1%
inhibition of growth at 1.25 µM (PC-3 [10]): 55.8%
inhibition of growth at 1.25 µM (PC-3 [11]): 72.5%
inhibition of growth at 1.25 µM (PC-3 [12]): 93.4%
inhibition of growth at 0.625 µM (PC-3 [13]): 1.6%
inhibition of growth at 0.625 µM (PC-3 [14]): 8.03%
inhibition of growth at 0.625 µM (PC-3 [15]): 16.9%
inhibition of growth at 0.625 µM (PC-3 [16]): 48%
inhibition of growth at 0.625 µM (PC-3 [17]): 69.4%
inhibition of growth at 0.625 µM (PC-3 [18]): 90.2%
inhibition of growth at 1.25 µM [19]: -1.17%
inhibition of growth at 0.625 µM [20]: -2.53%
inhibition of growth at 1.25 µM [21]: -1.6%
inhibition of growth at 1.25 µM [22]: 0.37%
inhibition of growth at 1.25 µM [23]: 8.37%
inhibition of growth at 1.25 µM [24]: 90%
inhibition of growth at 1.25 µM [25]: 97.6%
inhibition of growth at 1.25 µM [26]: 99.2%
inhibition of growth at 0.625 µM [27]: -2.77%
inhibition of growth at 0.625 µM [28]: -3.7%
inhibition of growth at 0.625 µM [29]: -4.87%
inhibition of growth at 0.625 µM [30]: 10%
inhibition of growth at 0.625 µM [31]: 90.2%
inhibition of growth at 0.625 µM [32]: 97.9%
inhibition of growth at 0.625 µM [33]: 99.2%
